This is an account of results in PubChem BioAssay AID322 (DTP/NCI, 2004).

Where “and” joins values, the source holds several entries; their conditions need not be identical. Identical values can stand only once. Toxic doses and inconclusive results are not listed.

The test relates to CD2F1 mice, P388/ADR leukemia ip, median survival T/C. Kind of test: NCI In Vivo Anticancer Drug Screen. Data for tumor model P388 Leukemia resistant to Adriamycin; NSC 123127, Developed at Scr 08 (intraperitoneal) in CD2F1 (CDF1) mice. The note with it: endpoint: median survival time, higher = longer survival. The protocol:
The antitumor activity of compounds was measured in mice bearing transplantable tumors. Survival or tumor size were measured and the results are expressed as the measurement made in the treated group (T) divided by the measurement made in the vehicle treated control group (C). The tumor model used in this assay is P388 Leukemia resistant to Adriamycin; NSC 123127, Developed at Scr 08 (intraperitoneal) in CD2F1 (CDF1) mice

As for `COc1cccc2c1C(=O)c1c(O)c3c(c(O)c1C2=O)C[C@@](O)(C(=O)CO)C[C@@H]3OC1CC(N2CCOCC2C#N)C(O)C(C)O1` (some centres undefined), the T/C was 173 % of control and 175 % of control (dose: 9.38 micrograms/kg/injection, schedule: Q04DX003 (ip), vehicle: saline with Tween-80); 107 % of control (dose: 15.0 micrograms/kg/injection, schedule: Q04DX003 (iv), vehicle: saline + alcohol); 99 % of control (dose: 22.0 micrograms/kg/injection, schedule: Q04DX003 (iv), vehicle: saline + alcohol); 88 % of control (dose: 33.0 micrograms/kg/injection, schedule: Q04DX003 (iv), vehicle: saline + alcohol); 160 % of control (dose: 37.5 micrograms/kg/injection, schedule: Q04DX003 (ip), vehicle: saline with Tween-80).

For the compound `COc1cccc2c1C(=O)c1c(O)c3c(c(O)c1C2=O)C[C@@](O)(C(=O)CO)C[C@@H]3OC1CC(N)C(O)C(C)O1` (some centres undefined), the T/C reads like this: (dose: 0.38 mg/kg/injection, schedule: Q01DX009 (ip), vehicle: saline) 118 % of control; (dose: 0.43 mg/kg/injection, schedule: Q01DX009 (ip), vehicle: saline) 86 % of control; (dose: 0.75 mg/kg/injection, schedule: Q01DX009 (ip), vehicle: saline) 109 % of control; (dose: 0.97 mg/kg/injection, schedule: Q04DX002 (ip), vehicle: saline) 110 % of control; (dose: 0.97 mg/kg/injection, schedule: Q04DX003 (ip), vehicle: saline) 98 % of control; (dose: 0.97 mg/kg/injection, schedule: Q04DX003 (ip), vehicle: water) 100 % of control. The T/C is 98 % of control (dose: 1.2 mg/kg/injection, schedule: Q01DX009 (ip), vehicle: saline); 118 % of control (dose: 1.25 mg/kg/injection, schedule: Q01DX001 (ip), vehicle: saline); 108 % of control (dose: 1.5 mg/kg/injection, schedule: Q01DX009 (ip), vehicle: saline); 111 % of control (dose: 1.62 mg/kg/injection, schedule: Q04DX002 (ip), vehicle: saline); 107 % of control (dose: 1.62 mg/kg/injection, schedule: Q04DX003 (ip), vehicle: saline); 100 % of control (dose: 1.62 mg/kg/injection, schedule: Q04DX003 (ip), vehicle: water). For the same compound, the T/C is, setting by setting: (dose: 2.0 mg/kg/injection, schedule: Q01DX009 (ip), vehicle: saline) 86 % of control; (dose: 2.16 mg/kg/injection, schedule: Q04DX003 (ip), vehicle: saline) 100 % of control; (dose: 2.5 mg/kg/injection, schedule: Q01DX001 (ip), vehicle: water) 124 % of control; (dose: 2.7 mg/kg/injection, schedule: Q04DX002 (ip), vehicle: saline) 117 % of control; (dose: 2.7 mg/kg/injection, schedule: Q04DX003 (ip), vehicle: saline) 100 % of control; (dose: 2.7 mg/kg/injection, schedule: Q04DX003 (ip), vehicle: water) 101 % of control. The T/C by setting is: (dose: 3.33 mg/kg/injection, schedule: Q01DX009 (ip), vehicle: saline) 90 % of control; (dose: 3.6 mg/kg/injection, schedule: Q04DX003 (ip), vehicle: saline) 102 % of control; (dose: 4.4 mg/kg/injection, schedule: Q01DX001 (ip), vehicle: saline) 120 % of control; (dose: 4.5 mg/kg/injection, schedule: Q04DX002 (ip), vehicle: saline) 120 % of control; (dose: 4.5 mg/kg/injection, schedule: Q04DX003 (ip), vehicle: saline) 102 % of control; (dose: 4.5 mg/kg/injection, schedule: Q04DX003 (ip), vehicle: water) 94 % of control. Further, the T/C (dose: 4.5 mg/kg/injection, schedule: Q04DX003 (iv), vehicle: saline) was 109 % of control; the T/C (dose: 5.0 mg/kg/injection, schedule: Q01DX001 (ip), vehicle: water) was 109 % of control; the T/C (dose: 6.0 mg/kg/injection, schedule: Q04DX003 (ip), vehicle: saline) is 106 % of control; the T/C (dose: 6.2 mg/kg/injection, schedule: Q01DX001 (ip), vehicle: saline) was 116 % of control; the T/C (dose: 6.7 mg/kg/injection, schedule: Q01DX005 (ip), vehicle: saline) is 152 % of control; the T/C (dose: 6.7 mg/kg/injection, schedule: Q04DX003 (iv), vehicle: saline) was 102 % of control. Besides, the T/C is, setting by setting: (dose: 7.5 mg/kg/injection, schedule: Q04DX002 (ip), vehicle: saline) 121 % of control; (dose: 7.5 mg/kg/injection, schedule: Q04DX003 (ip), vehicle: water) 92 % of control; (dose: 10.0 mg/kg/injection, schedule: Q01DX001 (ip), vehicle: water) 107 % of control; (dose: 10.0 mg/kg/injection, schedule: Q04DX003 (ip), vehicle: saline) 87 % of control; (dose: 10.0 mg/kg/injection, schedule: Q04DX003 (iv), vehicle: saline) 90 % of control; (dose: 12.5 mg/kg/injection, schedule: Q01DX001 (ip), vehicle: saline) 109 % of control and 119 % of control. Besides, the T/C is 107 % of control (dose: 15.0 mg/kg/injection, schedule: Q01DX005 (ip), vehicle: saline); 88 % of control (dose: 15.0 mg/kg/injection, schedule: Q04DX003 (iv), vehicle: saline); 90 % of control (dose: 16.0 mg/kg/injection, schedule: Q04DX003 (ip), vehicle: saline); 88 % of control (dose: 20.0 mg/kg/injection, schedule: Q01DX001 (ip), vehicle: water).

`CC(=O)N(C)c1ccc(Nc2cc(C)[nH]c3ccc4ncnc4c23)cc1`: the T/C runs as follows: (dose: 30.0 mg/kg/injection, schedule: Q01DX005 (ip), vehicle: saline) 98 % of control; (dose: 44.0 mg/kg/injection, schedule: Q01DX005 (ip), vehicle: saline) 114 % of control; (dose: 100.0 mg/kg/injection, schedule: Q01DX005 (ip), vehicle: saline) 122 % of control.

In the case of `COC1CC2C=C(C)/C=C/C=C/C(=O)NC(c3ccccc3)C/C=C/CCC(O)CC(=O)C2=C1O` (centres undefined), the T/C is 101 % of control (dose: 3.12 mg/kg/injection, schedule: Q01DX005 (ip), vehicle: Klucel (hydroxypropylcellulose) (HPC)) and 116 % of control (dose: 6.25 mg/kg/injection, schedule: Q01DX005 (ip), vehicle: Klucel (hydroxypropylcellulose) (HPC)).

For `CC[C@]1(O)C[C@H]2CN(CCc3c([nH]c4ccccc34)[C@@](C(=O)OC)(c3cc4c(cc3OC)N(C=O)[C@H]3[C@@](O)(C(=O)OC)[C@H](OC(C)=O)[C@]5(CC)C=CCN6CC[C@]43[C@@H]65)C2)C1`, the T/C runs as follows: (dose: 0.43 mg/kg/injection, schedule: Q04DX002 (ip), vehicle: saline) 109 % of control; (dose: 0.72 mg/kg/injection, schedule: Q04DX002 (ip), vehicle: saline) 111 % of control; (dose: 1.2 mg/kg/injection, schedule: Q04DX002 (ip), vehicle: saline) 109 % of control; (dose: 2.0 mg/kg/injection, schedule: Q04DX002 (ip), vehicle: saline) 103 % of control; (dose: 3.33 mg/kg/injection, schedule: Q04DX002 (ip), vehicle: saline) 115 % of control.

Consider `OC(CBr)C(O)C(O)C(O)CBr` (centres undefined), for which the T/C (dose: 30.0 mg/kg/injection, schedule: Q01DX009 (ip), vehicle: Klucel (hydroxypropylcellulose) (HPC)) was 162 % of control.

As to `COc1ccc(C(C)c2cc3c(cc2OC)OCO3)cc1` (centres undefined), the T/C reads like this: (dose: 12.5 mg/kg/injection, schedule: Q01DX005 (ip), vehicle: saline with Tween-80) 105 % of control; (dose: 25.0 mg/kg/injection, schedule: Q01DX005 (ip), vehicle: saline with Tween-80) 109 % of control; (dose: 50.0 mg/kg/injection, schedule: Q01DX005 (ip), vehicle: saline with Tween-80) 119 % of control.

For the compound `Nc1ccc2c(c1)CN1C(=O)c3ccccc3C1=N2`, the T/C was 215 % of control (2×) and 265 % of control (dose: 33.0 mg/kg/injection, schedule: Q01DX009 (ip), vehicle: saline with Tween-80); 270 % of control and 278 % of control and 297 % of control (dose: 50.0 mg/kg/injection, schedule: Q01DX009 (ip), vehicle: saline with Tween-80); 277 % of control and 297 % of control and 336 % of control (dose: 75.0 mg/kg/injection, schedule: Q01DX009 (ip), vehicle: saline with Tween-80); 102 % of control (dose: 75.0 mg/kg/injection, schedule: Q01DX009 (oral), vehicle: saline with Tween-80); 120 % of control (dose: 112.0 mg/kg/injection, schedule: Q01DX009 (ip), vehicle: saline with Tween-80); 104 % of control (dose: 112.0 mg/kg/injection, schedule: Q01DX009 (oral), vehicle: saline with Tween-80). The T/C by setting is: (dose: 169.0 mg/kg/injection, schedule: Q01DX009 (ip), vehicle: saline with Tween-80) 121 % of control; (dose: 169.0 mg/kg/injection, schedule: Q01DX009 (oral), vehicle: saline with Tween-80) 105 % of control; (dose: 252.2 mg/kg/injection, schedule: Q01DX009 (oral), vehicle: saline with Tween-80) 118 % of control; (dose: 378.2 mg/kg/injection, schedule: Q01DX009 (oral), vehicle: saline with Tween-80) 124 % of control.
